Measurements from BindingDB's records for patent US10961200 (Department Of Health And Human Services, 2021).

Each compound was assayed against L-lactate dehydrogenase A chain (Homo sapiens, UniProt P00338) (assay: Biochemical Assay).
Text: Test compounds were placed in a Greiner Bio-One (Monroe, N.C.) 1536-well black solid bottom assay plate. 200 millimolar (mM) Tris HCl, pH 7.4, 100 micromolar (M) EDTA and 0.01% TWEEN-20 , final concentration, was used as the assay buffer. The LDHA reagent was 2 nanomolar (nM) Human LDHA (Meridian Life Science, Inc., Memphis, Tenn.), final concentration, in assay buffer.

Compound	IC50 [nM]
CC(C)Oc1cccc(-c2nn(-c3nc(C(=O)O)cs3)c(CC3CC3)c2Cc2ccc(S(N)(=O)=O)cc2)c1 [US10961200, Compound 504]	< 100
NS(=O)(=O)c1ccc(Cc2cn(-c3nc(C(=O)O)cs3)nc2-c2ccc(F)c(-c3ccccc3)c2)cc1 [US10961200, Compound 515]	< 100
NS(=O)(=O)c1ccc(Cc2c(-c3cccc(Nc4ccccc4)c3)nn(-c3nc(C(=O)O)cs3)c2CC2CC2)cc1 [US10961200, Compound 485]	< 100
